Data from article PMC8597757, “Pharmacokinetic and Safety Profile of the Novel HIV Nonnucleoside Reverse Transcriptase Inhibitor MK-8507 in Adults without HIV” (Antimicrobial Agents and Chemotherapy, 2021).
Entries after “also recorded” stand apart in the source; their conditions may differ.

Columns and labels:
[1] = Single-dose plasma pharmacokinetics of MK-8507 (suspension, study 1; tablet, study 2); assay type: in vivo; conditions: human; for Cmax: n=6, read-out: Cmax (geometric mean [95% CI]); for AUC(0-t): n=6, read-out: AUC0–168 (geometric mean [95% CI]); for concentration at 168 h: n=6, read-out: C168hr (geometric mean [95% CI])
Procedure: (§1) Study 1 was a 4-period, alternating panel (A and B), rising single-dose trial. Participants in each panel were randomized to receive single rising doses of MK-8507 (n = 6 per panel) or placebo (n = 2 per panel) as an oral suspension. All study drugs were administered after an overnight fast, except in period 4. […] There was a minimum 20-day washout interval between doses within each panel and a 10-day interval between each dosing period. […] MK-8507 in plasma was extracted by protein precipitation and analyzed by reversed-phase chromatographic separation coupled with tandem mass spectrometric detection by Merck & Co., Inc. (West Point, PA, USA). The liquid chromatography-tandem mass spectrometric (LC-MS/MS) system consisted of a Waters Acquity ultraperformance liquid chromatography system (Waters Corporation, Milford, MA, USA) employing a turbo ionspray interface in the negative ion mode. The lower limit of quantitation was 1.0 ng/mL (2.03 nM) with a linear calibration range from 1.0 to 1000 ng/mL. The mean intrarun accuracy was 94.8 to 113% (precision, ≤6.2% coefficient of variation [CV]), and the mean interrun accuracy was 94.4 to 103.0% (precision, ≤8.6% CV). […] Statistical analyses were performed using SAS software version 9.3 (SAS Institute Inc., Cary, NC, USA). […] The least-squares geometric mean (GM) and corresponding 95% CIs obtained from the models were exponentiated to provide estimates for the population GMs and CIs on the original scales.

[2] = Food effect assessment (100 mg suspension, high-fat meal vs fasted); assay type: in vivo, human
Procedure: as §1

[3] = Dose proportionality assessment of single oral doses 2 to 1,200 mg; assay type: in vivo, human
From the text: The AUC0-168hr and […] group was not statistically significant at the 0.05 level and was therefore omitted from the final model. An overall slope was estimated across all groups.

[4] = Single-dose plasma pharmacokinetics of MK-8507 (suspension, study 1; tablet, study 2); assay type: in vivo; conditions: human, fasted; for AUC(0-inf): n=6, read-out: AUC0-∞ (geometric mean [95% CI]); for AUC(0-t): n=6, read-out: AUC0–168 (geometric mean [95% CI]); for half-life: n=6, read-out: Apparent terminal t½ (geometric mean [%GVC]) (converted); for concentration at 168 h: n=6, read-out: C168hr (geometric mean [95% CI]); for Cmax: n=6, read-out: Cmax (geometric mean [95% CI])
[5] = tested on: CYP3A4; conditions: preclinical in vitro studies, no reference given; cited from earlier work
[6] = po, 30 mg, single oral dose 30 mg, suspension, fasted
[7] = po, 400 mg, single oral dose 400 mg, suspension, fasted
[8] = 100 mg suspension, compared with fasted administration
[9] = po, 2 mg, single oral dose 2 mg, suspension
[10] = po, 10 mg, single oral dose 10 mg, suspension
[11] = po, 30 mg, single oral dose 30 mg, suspension
[12] = po, 100 mg, single oral dose 100 mg, suspension
[13] = po, 200 mg, single oral dose 200 mg, suspension
[14] = po, 400 mg, single oral dose 400 mg, suspension
[15] = po, 400 mg, single oral dose 400 mg, tablet
[16] = po, 800 mg, single oral dose 800 mg, tablet
[17] = po, 1200 mg, single oral dose 1,200 mg, tablet

Compound: N#Cc1cc(Cl)cc(Oc2c(C(F)(F)F)ncn(Cc3cc(C(F)(F)F)c(=O)[nH]n3)c2=O)c1 [MK-8507]
- half-life ([1]; oral, overall, discussion, read-out: terminal t½ (converted)): ~70 h
- half-life ([1]; oral, single doses 2 to 1,200 mg, range across doses, read-out: mean terminal half-life (t1/2)): 58 to 84 h
- half-life ([1]; oral, some participants, 336 h of PK sampling, read-out: t1/2 in some participants): > 100 h
- Tmax ([1]; oral, suspension, fasted, range across doses, read-out: median Tmax): 2 to 4 h
- Cmax ([1]; po, 2 mg, single oral dose 2 mg, suspension, fasted): 0.05 µM
- AUC(0-inf) ([1]; po, 10 mg, single oral dose 10 mg, suspension, fasted, n=6, read-out: AUC0-∞ (geometric mean [95% CI])): 15.2 µM·h
- Cmax ([1]; po, 10 mg, single oral dose 10 mg, suspension, fasted): 0.22 µM
- AUC(0-t) [1, 6]: 39.7 µM·h
- concentration at 168 h [1, 6]: 0.1 µM
- Tmax ([1]; po, 30 mg, single oral dose 30 mg, suspension, fasted, n=6, read-out: Tmax (median [min, max])): 2 h
- Tmax ([1]; po, 100 mg, single oral dose 100 mg, suspension, fasted, n=6, read-out: Tmax (median [min, max])): 2.04 h
- AUC(0-t) ([1]; po, 200 mg, single oral dose 200 mg, suspension, fasted): 287 µM·h
- concentration at 168 h [1, 7]: 1.3 µM
- Cmax [1, 7]: 11.5 µM
- Tmax ([1]; po, oral doses across both studies, suspension or tablet, read-out: time to maximum concentration (Tmax)): 2 to 7 h
- effect of a high-fat meal on MK-8507 pharmacokinetics ([2]; 100 mg suspension): no clinically meaningful effect; also recorded: no meaningful effect on AUC0–∞ or C168hr
- change in C168hr by a high-fat meal [2, 8]: no change
- decrease of AUC0–∞ by a high-fat meal [2, 8]: ~9%
- decrease of Cmax by a high-fat meal [2, 8]: 35%
- delay of Tmax by a high-fat meal [2, 8]: ~8 h
- AUC(0-inf) ([2]; human, single oral dose 100 mg (fed), suspension, following a high-fat meal, plasma, n=6, read-out: AUC0-∞ (geometric mean [95% CI])): 159 µM·h
- AUC(0-t) ([2]; human, single oral dose 100 mg (fed), suspension, following a high-fat meal, plasma, n=6, read-out: AUC0–168 (geometric mean [95% CI])): 126 µM·h
- half-life ([2]; human, single oral dose 100 mg (fed), suspension, following a high-fat meal, plasma, n=6, read-out: Apparent terminal t½ (geometric mean [%GVC]) (converted)): 72.6 h
- concentration at 168 h ([2]; human, single oral dose 100 mg (fed), suspension, following a high-fat meal, plasma, n=6, read-out: C168hr (geometric mean [95% CI])): 0.31 µM
- Cmax ([2]; human, single oral dose 100 mg (fed), suspension, following a high-fat meal, plasma, n=6, read-out: Cmax (geometric mean [95% CI])): 1.67 µM
- Tmax ([2]; human, single oral dose 100 mg (fed), suspension, following a high-fat meal, plasma, n=6, read-out: Tmax (median [min, max])): 10 h
- GMR fed/fasted, C168hr ([2]; single oral dose 100 mg suspension, high-fat meal vs overnight fast, n=6): 1.02
- dose proportionality of pharmacokinetics ([3]; 2 to 1,200 mg): increased dose proportionally; also recorded: approximately dose proportional
- Estimate of slope, C168hr as a function of dose ([3]; single oral doses of 2 to 1,200 mg, ln-ln linear mixed-effect model): 0.9932
- Tmax ([4]; oral, tablet, range across doses, read-out: median Tmax): 4 to 7 h
- AUC(0-inf) [4, 9]: 3.82 µM·h
- AUC(0-t) [4, 9]: 2.94 µM·h
- half-life [4, 9]: 82.9 h
- concentration at 168 h [4, 9]: 0.01 µM
- Tmax ([4]; po, 2 mg, single oral dose 2 mg, suspension, n=6, read-out: Tmax (median [min, max])): 2 h
- AUC(0-t) [4, 10]: 11.9 µM·h
- half-life [4, 10]: 82 h
- concentration at 168 h [4, 10]: 0.03 µM
- Tmax ([4]; po, 10 mg, single oral dose 10 mg, suspension, n=6, read-out: Tmax (median [min, max])): 2 h
- AUC(0-inf) [4, 11]: 52 µM·h
- half-life [4, 11]: 77.7 h
- Cmax [4, 11]: 0.79 µM
- AUC(0-inf) [4, 12]: 175 µM·h
- AUC(0-t) [4, 12]: 139 µM·h
- half-life [4, 12]: 75.9 h
- concentration at 168 h [4, 12]: 0.3 µM
- Cmax [4, 12]: 2.58 µM
- AUC(0-inf) [4, 13]: 374 µM·h
- half-life [4, 13]: 83.5 h
- concentration at 168 h [4, 13]: 0.68 µM
- Cmax [4, 13]: 5.4 µM
- Tmax ([4]; po, 200 mg, single oral dose 200 mg, suspension, n=6, read-out: Tmax (median [min, max])): 2.02 h
- AUC(0-inf) [4, 14]: 770 µM·h
- AUC(0-t) [4, 14]: 619 µM·h
- half-life [4, 14]: 69.1 h
- Tmax ([4]; po, 400 mg, single oral dose 400 mg, suspension, n=6, read-out: Tmax (median [min, max])): 4 h
- AUC(0-inf) [4, 15]: 710 µM·h
- AUC(0-t) [4, 15]: 606 µM·h
- half-life [4, 15]: 58.3 h
- concentration at 168 h [4, 15]: 1.28 µM
- Cmax [4, 15]: 9.09 µM
- Tmax ([4]; po, 400 mg, single oral dose 400 mg, tablet, n=6, read-out: Tmax (median [min, max])): 7 h
- AUC(0-inf) [4, 16]: 1230 µM·h
- AUC(0-t) [4, 16]: 989 µM·h
- half-life [4, 16]: 70.9 h
- concentration at 168 h [4, 16]: 2.1 µM
- Cmax [4, 16]: 15.4 µM
- Tmax ([4]; po, 800 mg, single oral dose 800 mg, tablet, n=6, read-out: Tmax (median [min, max])): 4 h
- AUC(0-inf) [4, 17]: 1920 µM·h
- AUC(0-t) [4, 17]: 1570 µM·h
- half-life [4, 17]: 68.7 h
- concentration at 168 h [4, 17]: 3.59 µM
- Cmax [4, 17]: 23.6 µM
- Tmax ([4]; po, 1200 mg, single oral dose 1,200 mg, tablet, n=6, read-out: Tmax (median [min, max])): 5 h
- induction of CYP3A4 expression in vitro [5]: demonstrated the potential to induce expression of CYP3A4
